According to the NIST ThermoML archive (doi:10.1016/j.fluid.2010.08.022):

Conditions: 101.33 kPa, Liquid crystal of unknown type; for speed of sound: Sing-around technique in a fixed-path interferometer; for mass density: Vibrating tube method

CCCCCCCC/C=C\CCCCCCCC(=O)[O-].OCC[NH2+]CCO [bis(2-hydroxyethyl)ammonium oleate]
Conditions | mass density [kg/m3] | speed of sound [m/s]
278.14 K | 978.16 | 1601.5
278.39 K | 977.996 | 1600.3
278.64 K | 977.834 | 1599.2
278.89 K | 977.67 | 1598.1
279.14 K | 977.506 | 1596.9
279.39 K | 977.342 | 1595.7
279.64 K | 977.177 | 1594.6
279.89 K | 977.017 | 1593.5
280.15 K | 976.852 | 1592.3
280.4 K | 976.689 | 1591.2
280.65 K | 976.525 | 1590.1
280.89 K | 976.361 | 1589
281.15 K | 976.197 | 1587.9
281.4 K | 976.035 | 1586.8
281.65 K | 975.87 | 1585.7
281.9 K | 975.706 | 1584.6
282.15 K | 975.544 | 1583.5
282.4 K | 975.38 | 1582.5
282.65 K | 975.217 | 1581.4
282.9 K | 975.053 | 1580.3
283.15 K | 974.89 | 1579.3
283.4 K | 974.726 | 1578.2
283.65 K | 974.562 | 1577.2
283.9 K | 974.401 | 1576.2
284.15 K | 974.236 | 1575.1
284.4 K | 974.073 | 1574
284.65 K | 973.91 | 1573
284.9 K | 973.745 | 1572
285.15 K | 973.584 | 1571
285.4 K | 973.419 | 1569.9
285.65 K | 973.258 | 1568.9
285.9 K | 973.092 | 1567.9
286.15 K | 972.93 | 1566.9
286.4 K | 972.766 | 1565.8
286.65 K | 972.604 | 1564.8
286.9 K | 972.442 | 1563.8
287.15 K | 972.275 | 1562.8
287.4 K | 972.113 | 1561.8
287.65 K | 971.951 | 1560.8
287.9 K | 971.788 | 1559.8
288.15 K | 971.625 | 1558.8
288.4 K | 971.46 | 1557.8
288.65 K | 971.299 | 1556.7
288.9 K | 971.135 | 1555.8
289.15 K | 970.972 | 1554.8
289.4 K | 970.811 | 1553.8
289.65 K | 970.645 | 1552.8
289.9 K | 970.483 | 1551.8
290.15 K | 970.32 | 1550.8
290.4 K | 970.158 | 1549.8
290.65 K | 969.995 | 1548.9
290.9 K | 969.831 | 1547.9
291.15 K | 969.668 | 1546.9
291.4 K | 969.506 | 1545.9
291.65 K | 969.343 | 1544.9
291.9 K | 969.18 | 1543.8
292.15 K | 969.016 | 1542.7
292.4 K | 968.854 | 1541.7
292.65 K | 968.691 | 1540.8
292.9 K | 968.527 | 1539.8
293.15 K | 968.365 | 1538.9
293.4 K | 968.202 | 1538
293.65 K | 968.039 | 1537.1
293.9 K | 967.876 | 1536.2
294.15 K | 967.713 | 1535.3
294.4 K | 967.548 | 1534.4
294.65 K | 967.388 | 1533.5
294.91 K | 967.225 | 1532.7
295.15 K | 967.061 | 1531.8
295.4 K | 966.898 | 1530.9
295.66 K | 966.735 | 1530
295.91 K | 966.572 | 1529.1
296.16 K | 966.408 | 1528.3
296.4 K | 966.246 | 1527.4
296.66 K | 966.084 | 1526.5
296.91 K | 965.921 | 1525.6
297.16 K | 965.758 | 1524.8
297.41 K | 965.595 | 1523.9
297.66 K | 965.433 | 1523
297.91 K | 965.27 | 1522.2
298.16 K | 965.108 | 1521.3
298.41 K | 964.945 | 1520.5
298.66 K | 964.781 | 1519.6
298.9 K | 964.619 | 1518.8
299.15 K | 964.457 | 1517.9
299.4 K | 964.294 | 1517.1
299.66 K | 964.132 | –
299.91 K | 963.968 | 1515.4
300.16 K | 963.805 | 1514.5
300.4 K | 963.642 | 1513.7
300.66 K | 963.481 | 1512.8
300.9 K | 963.318 | 1512
301.16 K | 963.154 | 1511.2
301.41 K | 962.991 | 1510.3
301.66 K | 962.83 | 1509.5
301.91 K | 962.666 | 1508.7
302.16 K | 962.503 | 1507.8
302.41 K | 962.341 | 1507
302.66 K | 962.178 | 1506.1
302.91 K | 962.013 | 1505.3
303.16 K | 961.853 | 1504.5
303.41 K | 961.689 | 1503.6
303.66 K | 961.527 | 1502.8
303.91 K | 961.364 | 1502
304.16 K | 961.2 | 1501.2
304.41 K | 961.038 | 1500.3
304.66 K | 960.875 | 1499.5
304.91 K | 960.712 | 1498.7
305.16 K | 960.55 | 1497.9
305.41 K | 960.387 | 1497
305.66 K | 960.223 | 1496.2
305.91 K | 960.061 | 1495.4
306.16 K | 959.898 | 1494.6
306.4 K | 959.736 | 1493.8
306.65 K | 959.573 | 1493
306.91 K | 959.409 | 1492.1
307.16 K | 959.246 | 1491.3
307.41 K | 959.083 | 1490.5
307.66 K | 958.92 | 1489.7
307.91 K | 958.759 | 1488.9
308.16 K | 958.595 | 1488.1
308.4 K | 958.43 | 1487.3
308.65 K | 958.268 | 1486.5
308.91 K | 958.105 | 1485.7
309.16 K | 957.942 | 1484.9
309.4 K | 957.779 | 1484.1
309.66 K | 957.617 | 1483.3
309.91 K | 957.453 | 1482.5
310.16 K | 957.289 | 1481.7
310.41 K | 957.128 | 1480.9
310.66 K | 956.963 | 1480.1
